Assay results published in patent publication US20090181890A1, “Amylin and Amylin Agonists for Treating Psychiatric Diseases and Disorders” (Amylin Pharmaceuticals , Inc., priority 2006, published 2009).

Tests used:
[1] = tested on: mice; experiment: marble burying; format: in vivo
Protocol: To confirm the interpretation of the findings outlined under Example 1, a variety of animal behavior assays were performed to test for anxiolytic, antidepressant, and antipsychotic effects of amylin administration. […] These specific behavioral tests are known to be sensitive to anxiolytic, antidepressant, or antipsychotic drugs. For these assays, rat amylin was administered to mice at doses ranging from 0.1 to 10 mg/kg, intraperitoneally or via a subcutaneously implanted osmotic pump (ALZET®) containing vehicle or rat amylin, and their performance in the assay was assessed.
Marble burying is used as a model for both anxiety and obsessive-compulsive disorder. See, for example, Chaki et al. (2003) J. Pharmacol. Exp. Ther. 304:818-826. Anxiolytics suppress marble burying activity. Mice were injected with the test agent (rat amylin at 0.1, 1.0 or 10 mg/kg, […] buspirone, or vehicle) 15-30 minutes prior to the test. Mice were then placed individually in clean cages containing 5-cm of hard wood bedding and 20 marbles spaced evenly in rows of five. The number of marbles buried in 30 minutes was recorded. […] Buspirone is a partial 5-HT1A agonist and an known anxiolytic agent.

[2] = adsorption onto glass container in liquid form; format: physicochemical
[3] = tested on: treated test animals; conditions: cited from earlier work
[4] = compared to human amylin; cited from earlier work
[5] = tested on: mice; experiment: novel object recognition; format: in vivo; conditions: rolipram 0.1 mg/kg IP 30 minutes prior to training; test 24 hours later; FIG. 8
Protocol: Since cognitive impairment is associated with psychoses, the effect of amylin administration on novel object recognition was examined. The novel object recognition task was used to measure working memory. See, for example, Miyamoto et al (2005) J. Neuroscience 25:1826-1835. Generally, animals spend less time exploring a previously presented object and more time exploring a novel object when both are presented together. Mice were injected IP with the test agent (rat amylin at 1.0 or 10 mg/kg, 0.1 mg/kg rolipram, or vehicle) 30 minutes prior to the training session. In the training, the mouse was allowed to explore two novel objects placed in the center of an open field. The time spent exploring each object was recorded. The objects differed in color, shape, and texture. Twenty-four hours after the training session, the mouse was placed back in the same open field in which one of the now familiar objects used in the training session was replaced by a novel object. The time spent exploring each object was again recorded. The memory index (or discrimination index) is the time spent exploring the novel object over the total time spent exploring both the novel and familiar objects (times 100). Results of this assay are shown in FIG. 8 where * is P<0.05 vs. vehicle.

[6] = tested on: mice; conditions: mouse, in vivo
Protocol: The PCP-induced locomotion test is used with the open field activity chambers and measures locomotion, rearing, and stereotypic activity under amphetamine/PCP-induced conditions. The test has predictive validity for some antipsychotic drugs that normalize the hyperactivity and stereotypic behavior seen with amphetamine and PCP. See, for example, Williams et al. (2006) Prog. Neuropsychopharmacol. Biol. Psychiatry 30:239-243. Mice were injected with the test agent (rat amylin at 0.1, 1.0 or 10 mg/kg, 3 mg/kg clozapine (CZP), or vehicle) 15-30 minutes prior injection with 5 mg/kg PCP. The animals were then placed in the center of an open field and activity was recorded for 60 minutes. […] CZP is an atypical, second generation antipsychotic drug has a mixed receptor profile, including the dopamine receptor.

[7] = tested on: mice; experiment: prepulse inhibition (PPI) test; format: in vivo; conditions: amylin at 10 mg/kg, haloperidol at 1 mg/kg; all prepulse levels (74, 78, and 82 dB); FIG. 5
From the text: The prepulse inhibition (PPI) test measures the reflex response to externally applied auditory stimulation (acoustic startle response) and is related to the deficiency in sensory-motor gating capacity seen in schizophrenia. The acoustic startle reflex is a very basic response to strong exteroceptive stimuli and is widely used to assess sensorimotor reactivity in animals and humans. A weak auditory stimulus (prepulse, 74-82 dB) given prior to the strong acoustic stimulus (120 dB) blunts the startle response. This blunting of the startle response is referred to as prepulse inhibition. See, for example, Conti et al (2005) Behavioral Neuroscience 119: 1052-1060. Antipsychotics increase the ability of the prepulse stimulus to blunt the startle response to the strong stimulus. Some psychotomimetic agents, such as phencyclidine (PCP) and ketamine, can actually reduce the percent prepulse inhibition and stimulate a psychotic-like state in animals, which can be antagonized by antipsychotic agents.
Mice were injected with the test agent (rat amylin at 0.1, 1.0 or 10 mg/kg, or vehicle) […] prior to the test or with haloperidol at 1 mg/kg 30 minutes prior to the test. The mice were placed into an animal holder and the holder placed onto a transducer platform in an acoustic chamber. […] The amount of the animal's “reaction” to the strong stimulus was recorded. […]

[8] = weight gain induced by clozapine; format: in vivo, rats; conditions: clozapine 0.025 and 0.25 mg/kg/day, s.c. osmotic pumps, 4 weeks; diet 58% kcal from fat; FIG. 7A
Protocol: The effect of amylin administration on weight gain induced by the second generation antipsychotic clozapine was examined. Adult, male Sprague-Dawley® rats (diet=58% kcal from fat) were implanted subcutaneously in the interscapular region with osmotic pumps that continuously delivered vehicle or drug for 4 weeks. In one experiment, rats were treated with vehicle or clozapine (0.025 and 0.25 mg/kg/day).

Molecule: O=C1CC2(CCCC2)CC(=O)N1CCCCN1CCN(c2ncccn2)CC1 [buspirone]
- reduction in marble burying, significance ([1]; amylin at 10 mg/kg, buspirone at 20 mg/kg, P<0.05): statistically significant
- number of marbles buried in 30 minutes ([1]; rat amylin 0.1, 1.0 or 10 mg/kg, buspirone 20/kg, 15-30 minutes prior, FIG. 3): reduced the number of marbles buried

Molecule: CC[C@H](C)[C@H](NC(=O)[C@@H]1CCCN1C(=O)CNC(=O)[C@H](Cc1ccccc1)NC(=O)[C@H](CC(N)=O)NC(=O)[C@H](CC(N)=O)NC(=O)[C@H](CO)NC(=O)[C@H](CO)NC(=O)[C@H](Cc1c[nH]cn1)NC(=O)[C@@H](NC(=O)[C@H](CC(C)C)NC(=O)[C@H](Cc1ccccc1)NC(=O)[C@H](CC(N)=O)NC(=O)[C@H](C)NC(=O)[C@H](CC(C)C)NC(=O)[C@H](CCCNC(=N)N)NC(=O)[C@H](CCC(N)=O)NC(=O)[C@@H](NC(=O)[C@H](C)NC(=O)[C@@H]1CSSC[C@H](NC(=O)[C@@H](N)CCCCN)C(=O)N[C@@H](CC(N)=O)C(=O)N[C@@H]([C@@H](C)O)C(=O)N[C@@H](C)C(=O)N[C@@H]([C@@H](C)O)C(=O)N1)[C@@H](C)O)C(C)C)C(=O)N[C@@H](CC(C)C)C(=O)N1CCC[C@H]1C(=O)N1CCC[C@H]1C(=O)N[C@H](C(=O)N[C@@H](CC(N)=O)C(=O)N[C@H](C(=O)NCC(=O)N[C@@H](CO)C(=O)N[C@@H](CC(N)=O)C(=O)N[C@H](C(=O)N[C@@H](Cc1ccc(O)cc1)C(N)=O)[C@@H](C)O)C(C)C)[C@@H](C)O [^25,28,29Pro-h-amylin]
- tendency to adsorb onto glass [2]: does not have a tendency to adsorb onto the glass
- amylin activity in vivo [3]: provoking marked hyperlactemia followed by hyperglycemia
- stability characteristics [4]: more desirable

Molecule: COc1ccc(C2CNC(=O)C2)cc1OC1CCCC1 (centres unmarked) [rolipram]
- relative time exploring the novel object (memory index), in words [5]: increased the relative time exploring the novel object

Molecule: CC(C)C[C@H](NC(=O)[C@H](CC(N)=O)NC(=O)[C@H](CC(N)=O)NC(=O)[C@H](CO)NC(=O)[C@H](CO)NC(=O)[C@H](CCCNC(=N)N)NC(=O)[C@@H](NC(=O)[C@H](CC(C)C)NC(=O)[C@H](Cc1ccccc1)NC(=O)[C@H](CC(N)=O)NC(=O)[C@H](C)NC(=O)[C@H](CC(C)C)NC(=O)[C@H](CCCNC(=N)N)NC(=O)[C@H](CCC(N)=O)NC(=O)[C@@H](NC(=O)[C@H](C)NC(=O)[C@@H]1CSSC[C@H](NC(=O)[C@@H](N)CCCCN)C(=O)N[C@@H](CC(N)=O)C(=O)N[C@@H]([C@@H](C)O)C(=O)N[C@@H](C)C(=O)N[C@@H]([C@@H](C)O)C(=O)N1)[C@@H](C)O)C(C)C)C(=O)NCC(=O)N1CCC[C@H]1C(=O)N[C@H](C(=O)N[C@@H](CC(C)C)C(=O)N1CCC[C@H]1C(=O)N1CCC[C@H]1C(=O)N[C@H](C(=O)N[C@@H](CC(N)=O)C(=O)N[C@H](C(=O)NCC(=O)N[C@@H](CO)C(=O)N[C@@H](CC(N)=O)C(=O)N[C@H](C(=O)N[C@@H](Cc1ccc(O)cc1)C(N)=O)[C@@H](C)O)C(C)C)[C@@H](C)O)C(C)C [amylin]
- baseline activity, agent alone [6]: did not affect baseline activity

Molecule: ^28Pro-h-amylin (KCNTATCATQRLANFLVHSSNNFGAILPSTNVGSNTY) [human amylin analog of formula I]
- amylin activity in vivo [3]: provoking marked hyperlactemia followed by hyperglycemia

Molecule: O=C(CCCN1CCC(O)(c2ccc(Cl)cc2)CC1)c1ccc(F)cc1 [haloperidol]
- percent of prepulse inhibition [7]: significantly increased the percent of prepulse inhibition

Molecule: des-^1Lys^18Arg^25,28Pro-h-amylin (CNTATCATQRLANFLVRSSNNFGPILPSTNVGSNTY) [human amylin analog of formula I]
- amylin activity in vivo [3]: provoking marked hyperlactemia followed by hyperglycemia

Molecule: ^18Arg^25,28Pro-h-amylin (KCNTATCATQRLANFLVRSSNNFGPILPSTNVGSNTY) [human amylin analog of formula I]
- amylin activity in vivo [3]: provoking marked hyperlactemia followed by hyperglycemia

Molecule: CN1CCN(C2=Nc3cc(Cl)ccc3Nc3ccccc32)CC1 [clozapine]
- baseline activity, agent alone [6]: did affect baseline activity
- weight gain compared to vehicle-treated rats [8]: increased weight gain

Molecule: des-^1Lys-h-amylin (CNTATCATQRLANFLVHSSNNFGAILSSTNVGSNTY) [human amylin analog of formula I]
- amylin activity in vivo [3]: provoking marked hyperlactemia followed by hyperglycemia
